The source made the active and inactive calls. The rule behind the calls is not given here.
Molecular target: T1, DNA topoisomerase 1 (Homo sapiens) (UniProt P11387)
T1 sequence (whole entry): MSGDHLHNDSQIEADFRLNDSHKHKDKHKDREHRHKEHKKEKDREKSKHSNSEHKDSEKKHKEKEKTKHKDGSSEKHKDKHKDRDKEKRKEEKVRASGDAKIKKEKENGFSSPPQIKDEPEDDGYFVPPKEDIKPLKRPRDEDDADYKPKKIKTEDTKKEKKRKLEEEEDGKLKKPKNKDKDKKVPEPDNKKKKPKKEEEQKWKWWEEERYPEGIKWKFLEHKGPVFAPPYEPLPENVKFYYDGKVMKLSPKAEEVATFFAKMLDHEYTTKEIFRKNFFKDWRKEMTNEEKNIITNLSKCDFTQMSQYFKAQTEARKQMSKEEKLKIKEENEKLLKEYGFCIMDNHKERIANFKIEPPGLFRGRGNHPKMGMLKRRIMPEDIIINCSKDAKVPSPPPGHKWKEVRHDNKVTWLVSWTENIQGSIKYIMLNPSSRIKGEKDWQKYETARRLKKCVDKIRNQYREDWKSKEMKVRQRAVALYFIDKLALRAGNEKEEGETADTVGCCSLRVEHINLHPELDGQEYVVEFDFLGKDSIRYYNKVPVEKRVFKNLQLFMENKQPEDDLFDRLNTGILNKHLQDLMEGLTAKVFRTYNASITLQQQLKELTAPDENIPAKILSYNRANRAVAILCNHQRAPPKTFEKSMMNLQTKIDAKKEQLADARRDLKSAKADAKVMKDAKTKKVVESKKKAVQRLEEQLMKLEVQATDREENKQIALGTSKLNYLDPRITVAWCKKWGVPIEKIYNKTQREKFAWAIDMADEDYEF
Assay: Inhibitory activity against DNA-Topoisomerase I

Structure (SMILES) | inhibition
Nc1ccc2c3c(n(CCCCl)c(=O)c2c1)-c1cc2c(cc1C3=O)OCO2 | inactive
O=C1c2cc3c(cc2-c2c1c1ccccc1c(=O)n2CCCCl)OCO3 | inactive

Reference: ChEMBL document CHEMBL1143631, “On the binding of indeno[1,2-c]isoquinolines in the DNA-topoisomerase I cleavage complex” (J Med Chem, 2005)
